One assay has as its target T1, DTX2 (Homo sapiens, UniProt Q86UW9).
T1 construct: RING-DTC domain, residues 389–622; with UBE2D3~Ub conjugate
In words: In vitro ubiquitylation of NAD+ ([…]) by purified DTX2 and E2~Ub, silver-stained gel. Format: biochemical.

A further assay has as its target T2, PARP10 (Homo sapiens, UniProt Q53GL7).
T2 construct: GFP-PARP10, doxycycline-inducible in HEK 293 cells
T2 sequence (Q53GL7 1-1025): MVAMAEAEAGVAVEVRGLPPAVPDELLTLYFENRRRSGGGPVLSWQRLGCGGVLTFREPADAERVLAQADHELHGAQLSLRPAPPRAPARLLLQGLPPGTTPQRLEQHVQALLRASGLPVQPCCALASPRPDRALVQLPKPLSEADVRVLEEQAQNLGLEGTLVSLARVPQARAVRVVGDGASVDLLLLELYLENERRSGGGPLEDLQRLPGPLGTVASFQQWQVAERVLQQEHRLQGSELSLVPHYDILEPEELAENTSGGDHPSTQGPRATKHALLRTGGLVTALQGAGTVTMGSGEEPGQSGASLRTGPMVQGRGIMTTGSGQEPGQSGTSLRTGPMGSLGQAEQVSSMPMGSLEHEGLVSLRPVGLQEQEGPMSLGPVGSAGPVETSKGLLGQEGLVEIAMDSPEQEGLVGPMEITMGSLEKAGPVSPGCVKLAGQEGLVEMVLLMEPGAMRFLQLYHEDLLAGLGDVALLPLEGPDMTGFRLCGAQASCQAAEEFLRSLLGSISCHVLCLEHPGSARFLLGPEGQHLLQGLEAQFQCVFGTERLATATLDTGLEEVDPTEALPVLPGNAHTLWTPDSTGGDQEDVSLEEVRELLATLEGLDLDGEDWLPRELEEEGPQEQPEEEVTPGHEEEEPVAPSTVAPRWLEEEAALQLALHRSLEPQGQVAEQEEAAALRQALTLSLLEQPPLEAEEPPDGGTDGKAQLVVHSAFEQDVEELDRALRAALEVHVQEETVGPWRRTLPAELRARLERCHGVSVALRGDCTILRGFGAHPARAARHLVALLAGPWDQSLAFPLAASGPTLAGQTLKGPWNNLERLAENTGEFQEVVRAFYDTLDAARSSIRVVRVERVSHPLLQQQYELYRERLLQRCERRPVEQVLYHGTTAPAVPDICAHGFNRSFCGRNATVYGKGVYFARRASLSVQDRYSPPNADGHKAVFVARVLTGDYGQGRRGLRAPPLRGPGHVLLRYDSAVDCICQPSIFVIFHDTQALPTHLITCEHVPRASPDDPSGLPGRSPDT
In words: Dose-response inhibition of GFP-PARP10 auto-MARylation in HEK […] cells, western blot. Format: cell-based.

T1 sequence (Q86UW9 389-622): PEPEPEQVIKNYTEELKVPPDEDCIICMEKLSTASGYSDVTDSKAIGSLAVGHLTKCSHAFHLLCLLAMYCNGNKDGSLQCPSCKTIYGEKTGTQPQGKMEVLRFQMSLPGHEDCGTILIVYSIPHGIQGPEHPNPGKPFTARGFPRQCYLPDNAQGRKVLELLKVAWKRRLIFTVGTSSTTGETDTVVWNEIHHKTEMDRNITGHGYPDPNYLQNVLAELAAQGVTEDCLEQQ
T1 sequence (P61077 whole entry partner, the tested form may be a part): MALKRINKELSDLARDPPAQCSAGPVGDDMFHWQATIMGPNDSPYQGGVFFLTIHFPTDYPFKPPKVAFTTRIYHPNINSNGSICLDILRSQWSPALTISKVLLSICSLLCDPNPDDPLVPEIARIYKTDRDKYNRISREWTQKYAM

`NC(=O)c1ccc[n+]([C@@H]2O[C@H](COP(=O)([O-])OP(=O)(O)OC[C@H]3O[C@@H](n4cnc5c(N)ncnc54)[C@H](O)[C@@H]3O)[C@@H](O)[C@H]2O)c1` [NAD^+]: the “In vitro ubiquitylation of NAD+ (0.2 mM) by purified DTX2 and E2~Ub, silver-stai” value at DTX2 is “DTX2 could readily conjugate Ub to NAD^+ and ADPr to form Ub ester-linked NAD^+ (NAD^+-Ube)”.

Compound RBN010860 displayed an IC50 at PARP10 of 51.4 nM.

(Values after article PMC12000418, “Ubiquitin is directly linked via an ester to protein-conjugated mono-ADP-ribose” (The EMBO Journal, 2025).)
